From ChEMBL document CHEMBL3991601, “The target landscape of clinical kinase drugs” (Science, 2017)
Activity calls are given as the source filed them. For most assays here, no stated cut-off is given here; in the data, actives have a measured Kd and inactives only a lower limit.

Key:
[1] = biological target: Cyclin-dependent kinase 3 (Homo sapiens, UniProt Q00526)
[2] = biological target: Calcium/calmodulin-dependent protein kinase kinase 2 (Homo sapiens, UniProt Q96RR4)
[3] = biological target: Tyrosine-protein kinase CSK (Homo sapiens, UniProt P41240)
[4] = biological target: T1, Serine/threonine-protein kinase TAO3 (Homo sapiens, UniProt Q9H2K8)
T1 sequence (Q9H2K8 whole entry): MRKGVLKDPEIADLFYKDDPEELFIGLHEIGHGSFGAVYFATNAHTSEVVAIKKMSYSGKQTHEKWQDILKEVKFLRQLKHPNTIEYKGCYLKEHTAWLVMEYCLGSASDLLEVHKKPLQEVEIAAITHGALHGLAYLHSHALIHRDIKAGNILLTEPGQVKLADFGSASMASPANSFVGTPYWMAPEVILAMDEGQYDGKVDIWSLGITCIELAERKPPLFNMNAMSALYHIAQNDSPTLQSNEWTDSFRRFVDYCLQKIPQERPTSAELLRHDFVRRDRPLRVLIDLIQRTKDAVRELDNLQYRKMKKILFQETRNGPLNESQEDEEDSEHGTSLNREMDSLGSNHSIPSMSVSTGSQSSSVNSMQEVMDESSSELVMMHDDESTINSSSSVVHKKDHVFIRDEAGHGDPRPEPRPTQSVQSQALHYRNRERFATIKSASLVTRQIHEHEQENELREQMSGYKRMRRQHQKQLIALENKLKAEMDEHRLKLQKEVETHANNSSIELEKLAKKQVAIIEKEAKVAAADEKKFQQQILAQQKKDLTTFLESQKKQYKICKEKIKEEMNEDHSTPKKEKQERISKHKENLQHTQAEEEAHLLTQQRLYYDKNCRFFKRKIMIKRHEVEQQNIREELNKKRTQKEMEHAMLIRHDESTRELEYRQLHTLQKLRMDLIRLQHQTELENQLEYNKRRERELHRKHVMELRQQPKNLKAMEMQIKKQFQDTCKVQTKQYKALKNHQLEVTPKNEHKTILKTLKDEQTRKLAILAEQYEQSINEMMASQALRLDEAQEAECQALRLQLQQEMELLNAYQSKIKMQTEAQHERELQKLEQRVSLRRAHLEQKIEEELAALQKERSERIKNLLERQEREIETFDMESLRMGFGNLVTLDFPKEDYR

Septin-9 = biological target: T2, Septin-9 (Homo sapiens, UniProt Q9UHD8)
T2 sequence (Q9UHD8 whole entry): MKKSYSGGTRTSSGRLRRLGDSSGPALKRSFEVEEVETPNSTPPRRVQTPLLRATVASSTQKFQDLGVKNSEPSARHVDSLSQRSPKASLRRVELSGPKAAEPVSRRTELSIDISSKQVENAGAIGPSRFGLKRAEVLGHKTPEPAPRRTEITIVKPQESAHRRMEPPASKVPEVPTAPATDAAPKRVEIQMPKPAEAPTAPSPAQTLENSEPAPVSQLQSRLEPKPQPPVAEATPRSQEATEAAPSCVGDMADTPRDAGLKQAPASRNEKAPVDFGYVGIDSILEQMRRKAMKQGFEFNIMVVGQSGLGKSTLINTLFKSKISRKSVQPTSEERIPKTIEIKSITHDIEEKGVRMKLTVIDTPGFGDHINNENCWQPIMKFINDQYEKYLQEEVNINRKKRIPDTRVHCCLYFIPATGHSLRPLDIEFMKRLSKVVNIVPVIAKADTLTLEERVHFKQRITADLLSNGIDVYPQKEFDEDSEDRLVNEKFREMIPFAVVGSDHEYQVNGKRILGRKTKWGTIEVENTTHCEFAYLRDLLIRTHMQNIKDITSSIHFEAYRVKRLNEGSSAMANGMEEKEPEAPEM

[5] = biological target: T3, NUAK family SNF1-like kinase 2 (Homo sapiens, UniProt Q9H093)
T3 sequence (Q9H093 whole entry): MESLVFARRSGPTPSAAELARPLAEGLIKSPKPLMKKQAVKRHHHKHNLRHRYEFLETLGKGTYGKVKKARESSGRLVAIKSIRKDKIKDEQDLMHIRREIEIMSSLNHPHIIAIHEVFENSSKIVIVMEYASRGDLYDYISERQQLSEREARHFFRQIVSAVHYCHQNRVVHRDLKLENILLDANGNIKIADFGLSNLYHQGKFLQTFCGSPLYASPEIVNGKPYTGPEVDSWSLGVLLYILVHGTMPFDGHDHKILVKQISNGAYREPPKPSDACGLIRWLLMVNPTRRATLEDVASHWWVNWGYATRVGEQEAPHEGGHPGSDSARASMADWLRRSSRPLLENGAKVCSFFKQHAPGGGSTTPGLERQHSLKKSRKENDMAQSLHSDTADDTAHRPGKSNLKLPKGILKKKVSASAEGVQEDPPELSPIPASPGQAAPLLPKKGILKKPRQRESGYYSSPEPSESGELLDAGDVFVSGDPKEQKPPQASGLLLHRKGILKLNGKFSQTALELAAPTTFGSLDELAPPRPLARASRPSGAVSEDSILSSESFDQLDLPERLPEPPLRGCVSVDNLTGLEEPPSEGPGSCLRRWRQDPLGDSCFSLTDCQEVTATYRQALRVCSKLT

Tyrosine-protein kinase CSK, sequence (P41240 whole entry): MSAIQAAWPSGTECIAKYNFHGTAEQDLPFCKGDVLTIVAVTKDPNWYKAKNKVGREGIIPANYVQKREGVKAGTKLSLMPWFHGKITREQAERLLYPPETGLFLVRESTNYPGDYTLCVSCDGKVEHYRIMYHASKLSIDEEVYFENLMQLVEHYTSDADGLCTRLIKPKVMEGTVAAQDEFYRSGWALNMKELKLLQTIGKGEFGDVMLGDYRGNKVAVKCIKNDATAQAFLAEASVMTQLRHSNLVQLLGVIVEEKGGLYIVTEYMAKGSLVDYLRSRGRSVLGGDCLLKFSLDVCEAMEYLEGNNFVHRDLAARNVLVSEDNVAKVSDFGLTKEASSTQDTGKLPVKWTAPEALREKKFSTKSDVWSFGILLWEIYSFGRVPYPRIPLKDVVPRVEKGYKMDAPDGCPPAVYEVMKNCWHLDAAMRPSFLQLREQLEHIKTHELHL
Cyclin-dependent kinase 3, sequence (Q00526 whole entry): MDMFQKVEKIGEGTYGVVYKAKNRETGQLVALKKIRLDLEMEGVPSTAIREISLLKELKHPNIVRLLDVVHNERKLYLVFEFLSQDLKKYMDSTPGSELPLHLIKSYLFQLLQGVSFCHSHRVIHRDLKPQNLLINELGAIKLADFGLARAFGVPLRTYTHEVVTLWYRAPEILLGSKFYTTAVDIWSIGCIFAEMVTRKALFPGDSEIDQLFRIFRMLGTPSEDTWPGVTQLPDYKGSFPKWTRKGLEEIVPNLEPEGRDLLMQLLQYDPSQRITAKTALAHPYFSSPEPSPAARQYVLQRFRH
Calcium/calmodulin-dependent protein kinase kinase 2, sequence (Q96RR4 whole entry): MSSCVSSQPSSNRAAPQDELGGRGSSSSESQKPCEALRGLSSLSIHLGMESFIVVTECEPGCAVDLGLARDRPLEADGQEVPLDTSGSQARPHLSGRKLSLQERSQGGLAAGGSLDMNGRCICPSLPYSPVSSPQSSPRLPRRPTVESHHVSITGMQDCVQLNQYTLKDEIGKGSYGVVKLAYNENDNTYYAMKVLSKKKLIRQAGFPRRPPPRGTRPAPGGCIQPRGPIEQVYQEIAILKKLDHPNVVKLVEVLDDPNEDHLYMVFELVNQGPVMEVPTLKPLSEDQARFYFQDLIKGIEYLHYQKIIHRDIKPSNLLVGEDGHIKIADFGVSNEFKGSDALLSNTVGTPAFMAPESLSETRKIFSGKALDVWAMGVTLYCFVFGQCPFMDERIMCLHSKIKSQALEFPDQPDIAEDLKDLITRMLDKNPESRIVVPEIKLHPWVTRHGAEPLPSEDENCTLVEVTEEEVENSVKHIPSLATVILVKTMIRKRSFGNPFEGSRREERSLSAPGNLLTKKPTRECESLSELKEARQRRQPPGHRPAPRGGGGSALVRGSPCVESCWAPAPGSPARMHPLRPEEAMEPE

| Compound | Kd [1] | Kd [2] | Kd [3] | Kd [4] | Kd (Septin-9) | Kd [5] |
| --- | --- | --- | --- | --- | --- | --- |
| Cn1c(=O)c(F)c(Nc2ccc(I)cc2F)c2c(=O)n(C[C@@H](O)CO)cnc21 [TAK-733] | > 30 µM (inactive) | > 30 µM (inactive) | > 30 µM (inactive) | > 30 µM (inactive) | > 30 µM (inactive) | > 30 µM (inactive) |
| COc1cc2ncnc3c2cc1OCCCCCN(C)Cc1ccc(Br)cc1N3 [JNJ-26483327] | > 30 µM (inactive) | > 30 µM (inactive) | > 30 µM (inactive) | > 30 µM (inactive) | > 30 µM (inactive) | > 30 µM (inactive) |
| COc1cc2ncnc(Nc3ccc(F)c(Cl)c3)c2cc1NC(=O)/C=C/CN1CCCCC1 [DACOMITINIB ANHYDROUS] | > 30 µM (inactive) | > 30 µM (inactive) | > 30 µM (inactive) | > 30 µM (inactive) | > 30 µM (inactive) | > 30 µM (inactive) |
| C#Cc1cccc(Nc2ncnc3cc4c(cc23)OCCOCCOCCO4)c1 [ICOTINIB] | > 30 µM (inactive) | > 30 µM (inactive) | > 30 µM (inactive) | > 30 µM (inactive) | > 30 µM (inactive) | > 30 µM (inactive) |
| Cc1cc(C(=O)Nc2cc(Oc3ccc4nc(NC(=O)C5CC5)cn4n3)ccc2C)n(C)n1 [TAK-593] | > 30 µM (inactive) | > 30 µM (inactive) | > 30 µM (inactive) | > 30 µM (inactive) | > 30 µM (inactive) | > 30 µM (inactive) |
| C[C@]1(O)C[C@@H](c2nc(-c3ccc4ccc(-c5ccccc5)nc4c3)c3c(N)nccn32)C1 [LINSITINIB] | > 30 µM (inactive) | > 30 µM (inactive) | > 30 µM (inactive) | > 30 µM (inactive) | > 30 µM (inactive) | > 30 µM (inactive) |
| COc1cc2ncnc(Nc3ccc(O)cc3)c2cc1OC [WHI-P131] | > 30 µM (inactive) | > 30 µM (inactive) | > 30 µM (inactive) | > 30 µM (inactive) | > 30 µM (inactive) | > 30 µM (inactive) |
| O=C(O)c1ccc2c(c1)nc(Nc1cccc(Cl)c1)c1ccncc12 [SILMITASERTIB] | > 30 µM (inactive) | > 30 µM (inactive) | > 30 µM (inactive) | > 30 µM (inactive) | > 30 µM (inactive) | > 30 µM (inactive) |
| CN(c1ncccc1CNc1nc(Nc2ccc3c(c2)CC(=O)N3)ncc1C(F)(F)F)S(C)(=O)=O [PF-00562271] | 3.43 µM (active) |  | > 30 µM (inactive) | 11.9 µM (active) | > 30 µM (inactive) | > 30 µM (inactive) |
| O[C@H]1CC[C@H](Nc2ncc3nc(Nc4c(F)cc(F)cc4F)n([C@H]4CCOC4)c3n2)CC1 [TANZISERTIB] | > 30 µM (inactive) | > 30 µM (inactive) | > 30 µM (inactive) | > 30 µM (inactive) | > 30 µM (inactive) | > 30 µM (inactive) |
| Cn1c(=O)n(-c2ccc(C(C)(C)C#N)cc2)c2c3cc(-c4cnc5ccccc5c4)ccc3ncc21 [DACTOLISIB] | > 30 µM (inactive) | > 30 µM (inactive) | > 30 µM (inactive) | > 30 µM (inactive) | > 30 µM (inactive) | > 30 µM (inactive) |
| S=C(NCc1ccc2c(c1)OCO2)N1CCN(c2ncnc3c2oc2ccccc23)CC1 [AMUVATINIB] | > 30 µM (inactive) | > 30 µM (inactive) | > 30 µM (inactive) | > 30 µM (inactive) | > 30 µM (inactive) | > 30 µM (inactive) |
| CN1CCN(c2nc(C3=C(c4c[nH]c5ccccc45)C(=O)NC3=O)c3ccccc3n2)CC1 [SOTRASTAURIN] | > 30 µM (inactive) | > 30 µM (inactive) | > 30 µM (inactive) | > 30 µM (inactive) | > 30 µM (inactive) | > 30 µM (inactive) |
| CCOc1ccn(-c2ccc(F)cc2)c(=O)c1C(=O)Nc1ccc(Oc2ccnc(N)c2Cl)c(F)c1 [BMS-777607] | > 30 µM (inactive) | > 30 µM (inactive) | > 30 µM (inactive) | > 30 µM (inactive) | > 30 µM (inactive) | > 30 µM (inactive) |
| CC1(COc2ccc3c(c2)ncn3-c2ccc3cccc(N4CCC(N)CC4)c3n2)COC1 [CRENOLANIB] | 1.07 µM (active) | 0.135 µM (active) | > 30 µM (inactive) | > 30 µM (inactive) | > 30 µM (inactive) | > 30 µM (inactive) |
| Cn1cnc2c(F)c(Nc3ccc(Br)cc3Cl)c(C(=O)NOCCO)cc21 [SELUMETINIB] |  |  |  |  | > 30 µM (inactive) |  |
| COc1cc2c(N3CCN(C(=O)Nc4ccc(OC(C)C)cc4)CC3)ncnc2cc1OCCCN1CCCCC1 [TANDUTINIB] |  |  |  |  | 0.01 µM |  |
| COc1cc2c(Oc3ccc4[nH]c(C)cc4c3F)ncnc2cc1OCCCN1CCCC1 [CEDIRANIB] |  |  |  |  | > 30 µM (inactive) |  |
| COc1ccc2c(OCc3nnc4ccc(-c5ccccc5)nn34)ccnc2c1 [AMG-208] | > 30 µM (inactive) | > 30 µM (inactive) | > 30 µM (inactive) | > 30 µM (inactive) | > 30 µM (inactive) |  |
| CC(C)CC(=O)Nc1[nH]nc2c1CN(C(=O)C1CCN(C)CC1)C2(C)C [PHA-793887] | 0.008 µM (active) | > 30 µM (inactive) | > 30 µM (inactive) |  | > 30 µM (inactive) | > 30 µM (inactive) |
| CC1(C)CNc2cc(NC(=O)c3cccnc3NCc3ccncc3)ccc21 [MOTESANIB] |  |  |  |  | > 30 µM (inactive) |  |
| CN(C)C/C=C/C(=O)Nc1cc2c(Nc3ccc(F)c(Cl)c3)ncnc2cc1O[C@H]1CCOC1 [AFATINIB] |  |  |  |  | > 30 µM (inactive) |  |
| C[C@@]1(C(=O)Nc2ccc(F)nc2)CCCN1c1nc(Nc2cc(C3CC3)n[nH]2)c2cccn2n1 [BMS-754807] |  |  |  |  | > 30 µM (inactive) |  |
| CCN1CCN(Cc2ccc(Nc3ncc(F)c(-c4cc(F)c5nc(C)n(C(C)C)c5c4)n3)nc2)CC1 [ABEMACICLIB] |  | 2.6 µM (active) | > 30 µM (inactive) | 1.72 µM (active) | > 30 µM (inactive) | > 30 µM (inactive) |
| O=C(NC[C@H](O)CO)c1ccncc1Nc1ccc(I)cc1F [PIMASERTIB] | > 30 µM (inactive) | > 30 µM (inactive) | > 30 µM (inactive) | > 30 µM (inactive) | > 30 µM (inactive) |  |
| Cc1cc(-c2cc(OC(=O)c3ccccc3)ccc2Cl)cc2nnc(Nc3ccc(OCCN4CCCC4)cc3)nc12 [TG100-801] | > 30 µM (inactive) | > 30 µM (inactive) | > 30 µM (inactive) | > 30 µM (inactive) | > 30 µM (inactive) |  |
| N#CCNC(=O)c1ccc(-c2ccnc(Nc3ccc(N4CCOCC4)cc3)n2)cc1 [MOMELOTINIB] |  | > 30 µM (inactive) | > 30 µM (inactive) |  | > 30 µM (inactive) | > 30 µM (inactive) |
| CCN(CCCOc1ccc2c(Nc3cc(CC(=O)Nc4cccc(F)c4)n[nH]3)ncnc2c1)CCOP(=O)(O)O [BARASERTIB] | > 30 µM (inactive) |  | > 30 µM (inactive) | > 30 µM (inactive) | > 30 µM (inactive) | > 30 µM (inactive) |
